Measurements reported in patent US20250283178A1, “FOXC1 EXPRESSION AS A COMPLEMENTARY DIAGNOSTIC ASSAY FOR PREDICTING EFFICACY OF ONCOLOGY DRUGS AND DRUG COMBINATION REGIMENS AND METHODS FOR USE” (3N DIAGNOSTICS LTD., priority 2022, published 2025).

Assays:
TNBC cells = settings: cited from earlier work
[1] = tested on: ER and or PR-positive cells; settings: Wang et al., 2015; cited from earlier work
binding of SOX9 to FOXC1 = settings: Tang et al., 2020; cited from earlier work
TGFβ1 = settings: through a GLI2 inhibitory mechanism; Didiasova et al., 2017; cited from earlier work
[2] = tested on: fibroblast activation and tumor-fibroblast crosstalk; settings: Fujiwara et al., 2020; cited from earlier work
[3] = tested on: cancer-associated fibroblasts; settings: Aboulkheyr Es et al., 2020; cited from earlier work
[4] = tested on: lung, liver and colon cancer; settings: combination; Qin et al., 2020; cited from earlier work
TNBC [5] = settings: Raninga et al., 2020; cited from earlier work
TNBC patients = experiment: I-SPY2 neoadjuvant Durvalumab arm, pathologic complete response by MK167+FOXC1 predictor; assay type: in vivo, human; settings: Durvalumab Arm: Olaparib+Paclitaxel+Durvalumab
Method: (§1) Methods. 41 Pre-NACT tumor biopsy MK167 and FOXC1 mRNA expression values were retrospectively obtained from TNBC patients and HER2 negative ER+ breast cancer patients who had been enrolled and treated in the I-SPY2 clinical trial (Durvalumab arm: 21, Control arm: 20) and correlated with the rate of observed pathologic complete response (pCR). The area under the curve (AUC) of each model was calculated and used to determine suitable cutoff values to maximize Negative Predictive Value (NPV) and Sensitivity for pCR prediction.
as §1, with “TNBC” for “TNBC patients and HER2 negative ER+ breast cancer”

[6] = tested on: HER2 negative ER+ breast cancer patients; experiment: as above; assay type: in vivo, human; settings: FIG. 16
Method: as §1

ER+ breast cancer = settings: Kornblum et al., 2018; cited from earlier work
TNBC [7] = settings: two separate Phase II trials (Jovanovic et al., 2017; Park et al., 2018); cited from earlier work
[8] = tested on: CXCR4-mediated invasion and metastasis; settings: Pan et al., 2018; cited from earlier work
prostate cancer = settings: Gravina et al., 2015; cited from earlier work
[9] = tested on: cancer stem cells in AML and glioblastoma; settings: Hira et al., 2020; cited from earlier work
[10] = tested on: ER+LN-breast cancer patients; experiment: Adjuvant chemotherapy added to adjuvant Tamoxifen, all-cause mortality (SCAN-B dataset); assay type: in vivo, human; settings: FOXC1 greater than 60th percentile or VERESCA FOXC1 IHC Score of 2; adjuvant Tamoxifen X 5 years with or without adjuvant chemotherapy
Excerpt: The prognostic utility of the VERESCA® FOXC1 IHC assay and the VERESCA® FOXC1Clin Criteria recurrence risk score was additionally validated in a second independent clinical trial dataset (SCAN-B) comprising 3207 breast cancer patients for whom clinical, treatment, gene expression data and outcomes data (Overall Survival) were available.
FOXC1 expression cutoff value was 60th percentile of expression of FOXC1 mRNA on qRTPCR, 60th percentile of expression of FOXC1 mRNA on RNA-Seq, or FOXC1 Score of 2 using VERESCA® FOXC1 IHC kit. FOXC1 expression less than the 60th percentile (FOXC1<60TH % ILE) by mRNA EXPRESSION or <VERESCA® FOXC1 IHC Score of 2 predicts LOW RISK and efficacy of the current standard of care which is adjuvant Tamoxifen X 5 years) in successfully reducing disease recurrence risk, and its resultant impact on all-cause mortality, without the need for additional/adjuvant chemotherapy.
The ability of the VERESCA® FOXC1Clin criteria recurrence risk score to predict a statistically significant decrease in all-cause mortality rate in the 8-year period post-diagnosis in response to having received adjuvant chemotherapy in addition to adjuvant Tamoxifen therapy was validated in SCAN-B clinical trial dataset (Odds Ratio 6.477 [Cl 2.974-14.107], p=0.0000001).

leukemia stem cells = settings: Fukushima et al., 2016; cited from earlier work
GLI2 = settings: abrogates leukemia stem cell dormancy; Sadarangani et al., 2015; cited from earlier work
[11] = tested on: in vitro FOXC1+ cancer model; settings: concurrent treatment with Wnt signaling inhibition; Ray et al., 2015b; cited from earlier work
breast cancer = settings: Ginestier et al., 2010; cited from earlier work
gastric cancer = settings: Wang et al., 2016b; cited from earlier work
[12] = tested on: HER2-positive breast cancer; settings: Singh et al., 2013, cited from earlier work
[13] = tested on: breast CSC count in preoperative tumors; settings: Goldstein et al., 2020; cited from earlier work

CN(C)C/C=C/C(=O)Nc1ccc(C(=O)Nc2cccc(Nc3ncc(Cl)c(-c4c[nH]c5ccccc45)n3)c2)cc1 [THZ1]
sensitivity of cell proliferation (TNBC cells; CDK7 inhibitor, Wang et al., 2015): selectively sensitive
apoptotic cell death (TNBC cells; Tang et al., 2020): increasing apoptotic cell death
effect of treatment on cells [1]: largely unaffected
binding of SOX9 to FOXC1 and enhancer/SE-associated transcription factors (binding of SOX9 to FOXC1): significantly disrupted

Cc1ccc(=O)n(-c2ccccc2)c1 [Pirfenidone]
fibrosis / TGFβ1 (TGFβ1): decrease fibrosis by decreasing TGFβ1
fibroblast activation and tumor-fibroblast crosstalk in the TME [2]: capable of inhibiting fibroblast activation and tumor-fibroblast crosstalk
immunosuppressive capacity of cancer-associated fibroblasts [3]: successful in reducing immunosuppressive capacity
therapeutic benefit of PD1/PDL1 immune checkpoint blockade [4]: augment the observed therapeutic benefit

C[C@@]12OC(=O)[C@]1([C@@H](O)[C@@H]1C=CCCC1)NC(=O)[C@@H]2CCCl [Marizomib]
development of lung and brain metastasis (TNBC [5]): significantly reduced the development of lung and brain metastasis
tumor growth (TNBC [5]): marked decline in tumor growth

Durvalumab
pCR rate (TNBC patients; predicted non-responders (MK167+FOXC1 mRNA)): 0%
pCR rate (TNBC patients; predicted responders (MK167+FOXC1 mRNA)): 75%
pCR rate ([6]; predicted non-responders): 15.38%
pCR I rate ([6]; predicted responders): 38.1%
pCR II rate ([6]; predicted responders): 62.5%

CO[C@H]1C[C@@H]2CC[C@@H](C)[C@@](O)(O2)C(=O)C(=O)N2CCCC[C@H]2C(=O)O[C@H]([C@H](C)C[C@@H]2CC[C@@H](OCCO)[C@H](OC)C2)CC(=O)[C@H](C)/C=C(\C)[C@@H](O)[C@@H](OC)C(=O)[C@H](C)C[C@H](C)/C=C/C=C/C=C/1C [Everolimus]
progression free survival (ER+ breast cancer): prolong progression free survival
efficacy (TNBC [7]): failed to show any demonstrable efficacy

c1cc(CN2CCCNCCNCCCNCC2)ccc1CN1CCCNCCNCCCNCC1 [Plerixafor]
CXCR4-mediated invasion and metastasis [8]: successful in reversing the CXCR4-mediated invasion and metastasis
incidence of bone metastasis (prostate cancer): successfully reduce the incidence of bone metastasis
mobilization of cancer stem cells from their niche [9]: mobilize cancer stem cells from their niche

CC/C(=C(\c1ccccc1)c1ccc(OCCN(C)C)cc1)c1ccccc1 [Tamoxifen]
risk of death (all-cause mortality) [10]: greater than 24%

CN1CC[C@@H](NC(=O)Nc2ccc(C#N)cc2)C[C@@H]1c1nc2ccccc2[nH]1 [Glasdegib]
targeting of leukemia stem cells (leukemia stem cells): successfully target leukemia stem cells
downstream effect on GLI2 (GLI2): GLI2 inhibition

CC(C)C[C@H](NC(=O)[C@H](Cc1ccccc1)NC(=O)c1cnccn1)B(O)O [Bortezomib]
emergence of resistant clones / cancer stem cell escape [11]: prevented the emergence of such resistant clones

CC(C)Cc1ccc([C@@H](C)C(=O)NS(C)(=O)=O)cc1 [Repartaxin]
therapeutic efficacy (breast cancer): therapeutic efficacy
therapeutic efficacy (gastric cancer): therapeutic efficacy
breast CSC activity [12]: successfully reduced breast CSC activity
therapeutic efficacy in combination ([12]; combined with Lapatinib): enhanced therapeutic efficacy when combined with Lapatinib
decrease in breast CSC count [13]: more than 20%
